# Entries after “also recorded” stand apart in the source; their conditions may differ.
# Legend:
# [1] = Cytotoxicity assay (Alamar Blue); format: cell-based; settings: human, HEK293 cells, 72 h exposure, mean ± SD, at least 3 independent experiments
# Protocol: (§1) The HEK293 cell line was obtained from the ECACC (European Collection of Authenticated Cell Cultures, cat. 85120602, Salisbury, UK). The cells were grown in monolayer culture in Dulbecco’s Modified Eagle Medium (DMEM) (PanEco, Moscow, Russia) supplemented with 2 mM of L-glutamine, 1% penicillin/streptomycin (Capricorn Scientific, Ebsdorfergrund, Germany), and 10% heat-inactivated fetal bovine serum (HyClone, Cytiva, Pasching, Austria) in a humidified atmosphere of 5% CO2 and at 37 °C (Binder, Tuttlingen, Germany). For analysis, the HEK293 cells were seeded into a 96-well plate (Corning Incorporated, Corning, NY, USA) in 100 μL of complete culture medium at a final concentration of 1 × 10^4 cells/well and cultured for 24 h for proper attachment. Subsequently, the medium was removed, and cells were exposed to the test inhibitor with different concentrations for 72 h in 100 μL of fresh complete culture medium. The sensitivity of the cells to test inhibitor molecules was detected using the vital dye Alamar Blue (Invitrogen, Carlsbad, CA, USA). The Alamar Blue assay was performed according to the procedure described by O’Brien et al.. After incubation with test inhibitor molecules, 10 μL of Alamar Blue reagent was added to each well, cell culture plates were returned to a humidified incubator, and the fluorescence was read after 3 h. The plates were exposed to an excitation wavelength of 545 nm, and the emission at 600 nm was measured with the CLARIOstar Plus (BMG Labtech, Ortenberg, Germany, Software Version 5.70 R2). To determine corresponding 50% cellular cytotoxicity (CC50) values, a four-parameter sigmoidal fit curve model (GraphPad Prism 8 software) was used to measure the data.
# E. coli MG1655 = assay: Growth curves of E. coli MG1655 with antibiotics, with or without LpxC inhibitors (antibiotic potentiation); format: cell-based, Escherichia coli; settings: for Activity: combined action together with the antibiotic, marking used for QSAR; for potentiation of kanamycin (sensitivity of cells): kanamycin 0.62 μM; for potentiation of kanamycin (sensitivity of cells) / potentiation of rifampicin (sensitivity of cells): inhibitor 50 or 100 µM; for potentiation of kanamycin (sensitivity of cells) / potentiating activity with nalidixic acid (growth inhibition) / potentiation of rifampicin (sensitivity of cells): OD600 growth curves; for potentiating activity with nalidixic acid (growth inhibition): nalidixic acid 17.22 μM, inhibitor 50–100 µM; for potentiation of rifampicin (sensitivity of cells): rifampicin 6.08 μM; for bacteriostatic effect in the first 10 h of incubation: with antibiotic, resumption of culture growth observed subsequently; as to Activity: key: active (1); inactive (0)
# Protocol: (§2) Escherichia coli strain MG1655 and Pseudomonas aeruginosa strain ATCC 27853 were obtained from the American Type Culture Collection (ATCC; Rockville, MD, USA). Subculturing and inoculum preparation were prepared according to the Clinical and Laboratory Standards Institute (CLSI) recommended method, M7-A9 [42], using MHA and MHB.
# Growth curves were obtained with a Bioscreen C automated growth analysis system. Cultures of E. coli MG1655 were grown overnight at 37 °C, diluted 1:100 in fresh medium, inoculated into honeycomb wells in triplicate, and grown at 37 °C with maximum shaking using the platform of the Bioscreen C instrument. […] OD600 values were recorded automatically at specified times, and the means of the triplicate cultures were plotted.
# P. aeruginosa ATCC 27853 = assay: MIC (broth microdilution) and growth curves of antibiotics in combination with 9c or 9d; format: cell-based, Pseudomonas aeruginosa; settings: for time of growth inhibition in combination with nalidixic acid: 50 μM of compound + 2.15 μM nalidixic acid, growth curves; for MIC: Pseudomonas aeruginosa, ATCC27853, read-out: MIC of nalidixic acid in the presence of compound; for P. aeruginosa ATCC 27853 growth in combination with antibiotics: with nalidixic acid or rifampicin
# Protocol: as §2
# Minimum inhibitory concentrations (MICs) for rifampicin and nalidixic acid were determined via the modified broth microdilution method in triplicate according to CLSI guidelines M7-A9 and M100-A30 [43]. The antibiotics were serially diluted twofold in 100 μL of MHB. The bacteria inoculum was 100 μL of a 1.0 × 10^6 CFU/mL dilution in MHB. MICs for antibiotics in the presence of 9c or 9d were determined with the same method.
# MIC endpoints were read after 24 h of incubation with an iMark microplate absorbance reader (Bio-Rad, Hercules, CA, USA). Growth curves of P. aeruginosa ATCC 27853 in the presence of rifampicin/nalidixic acid and 9c/9d were obtained using a multifunction microplate reader, SuperMax 3100 (ShanghaiFlash, Shanghai, China). Cells were grown in triplicate at 37 °C with aeration.
# E. coli LpxC = settings: cited from earlier work
# HEK293 cell line = assay: Cytotoxicity assay (Alamar Blue); format: cell-based; settings: HEK293 cells, 72 h exposure, mean ± SD, at least 3 independent experiments
# Protocol: as §1
decrease of MIC of rifampicin (P. aeruginosa ATCC 27853; 25 μM of compound),reduction of MIC of nalidixic acid (P. aeruginosa ATCC 27853; 25 μM of compound),MIC of rifampicin in the presence of compound (P. aeruginosa ATCC 27853; 50 μM of compound),reduction of MIC of nalidixic acid (P. aeruginosa ATCC 27853; 50 μM of compound),reduction of MIC of rifampicin (P. aeruginosa ATCC 27853; 50 μM of compound),MIC of rifampicin in the presence of compound (P. aeruginosa ATCC 27853; 100 μM of compound),decrease of MIC of nalidixic acid (P. aeruginosa ATCC 27853; 100 μM of compound),reduction of MIC of rifampicin (P. aeruginosa ATCC 27853; 100 μM of compound),MIC (P. aeruginosa ATCC 27853; 100 μM of compound),melting point,Compound,CC50 at 72 h [1],Activity (E. coli MG1655),potentiation of kanamycin (sensitivity of cells) (E. coli MG1655),potentiating activity with nalidixic acid (growth inhibition) (E. coli MG1655),potentiation of rifampicin (sensitivity of cells) (E. coli MG1655),bacteriostatic effect in the first 10 h of incubation (E. coli MG1655),time of growth inhibition in combination with nalidixic acid (P. aeruginosa ATCC 27853),P. aeruginosa ATCC 27853 growth in combination with antibiotics (P. aeruginosa ATCC 27853),inhibition of E. coli LpxC (E. coli LpxC),CC50 (HEK293) (HEK293 cell line)
inactive,ineffective,0.08 µM,four times,64 times,0.08 µM,approximately eight-fold,64 times,2.15 µM,165.4 °C (dec.),Cc1cccc(-c2noc(CC(=O)NO)n2)c1 [Compound 9d],176 ± 17.8 µM,1,greatest potentiating activity,greatest potentiating activity,greatest potentiating activity,powerful bacteriostatic effect,≤ 8 h,significantly reduced; also recorded: best results,,
twofold,two times,0.08 µM,four times,64 times,0.08 µM,approximately eight-fold,64 times,2.15 µM,159.2 °C (dec.),O=C(Cc1nc(-c2cc(F)c(F)c(F)c2)no1)NO [Compound 9c],189 ± 29.5 µM,1,greatest effectiveness; also recorded: greatest potentiating activity,greatest potentiating activity,greatest effectiveness; also recorded: greatest potentiating activity,powerful bacteriostatic effect,≤ 14 h,significantly reduced; also recorded: best results,,
,,,,,,,,,,"CCCc1cc(C2=N[C@@H](C(=O)NO)CO2)cc(OC)c1OC [L-161,240]",,,,,,,,,potent inhibitors,
,,,,,,,,,198 °C (dec.),Cn1c(-c2nnc(C(=O)NO)o2)cc2ccccc21 [Compound 36],132 ± 23.7 µM,1,completely ineffective,inhibited bacterial growth less effectively; also recorded: weak potentiating activity,completely ineffective,,,,,increased toxicity

# From article PMC10779255, “Novel Hydroxamic Acids Containing Aryl-Substituted 1,2,4- or 1,3,4-Oxadiazole Backbones and an Investigation of Their Antibiotic Potentiation Activity” (International Journal of Molecular Sciences, 2023)
